{"source": "patent US7691392B2", "about": "(Kosan Biosciences Incorporated, priority 2005, dated 2010)", "key": {"[1]": {"assay": "Dose limiting toxicity and drug-related toxicities in the MM trial", "description": "Non-Hematologic toxicities comprise: (1) any≧Grade 3 non-hematologic toxicity (except Grade 3 injection site reaction, alopecia, anorexia, fatigue), (2) nausea, diarrhea and/or vomiting of Grade≧3 despite the use of maximal medical intervention and/or prophylaxis, and/or (3) treatment delay of more than 4 weeks due to prolonged recovery from a drug-related toxicity.\nThe doses and schedule of study drug were as follows. […] Subsequent patient cohorts were enrolled per the escalation scheme outlined in the table below, as supported by observed toxicities. […] If one of three evaluable patients experienced a DLT, then the cohort was increased to six evaluable patients. If two or more of six evaluable patients in a cohort experienced a DLT, then the MTD was deemed to have been exceeded; all further accrual was at the previous dose level. If no more than one of the six patients experienced a DLT, then the next dose level was evaluated."}, "[2]": {"tested_on": "diffuse GFP positive MM lesions", "conditions": "survival analysis; cited from earlier work"}, "[3]": {"conditions": "weekly dosing schedule; cited from earlier work"}, "[4]": {"tested_on": "lung cancer cells with wild-type Rb", "conditions": "exposure to 17-AAG; cited from earlier work"}, "[5]": {"conditions": "patients treated at 56 mg/m^2 17-AAG; cited from earlier work"}, "Raf-1": {"tested_on": "Raf-1", "conditions": "at 24 hours; cited from earlier work"}, "CDK4": {"tested_on": "CDK4", "conditions": "at 24 hours; cited from earlier work"}, "plasma protein": {"tested_on": "plasma protein", "assay": "Plasma protein binding, in vitro assays using human blood"}, "cell kill": {"tested_on": "cell kill", "conditions": "in vitro and in vivo xenograft models; cited from earlier work"}, "[6]": {"conditions": "daily for 5 days every 3 weeks; cited from earlier work"}, "[7]": {"conditions": "dose levels studied; cited from earlier work"}, "NSCLC cells": {"tested_on": "NSCLC cells", "conditions": "exposure to 17-AAG; cited from earlier work"}, "solid tumors": {"tested_on": "solid tumors", "conditions": "adult patients with solid tumors; cited from earlier work"}, "[8]": {"assay": "Plasma pharmacokinetics of 17-AAG and 17-AG in the open-label dose escalating trial in MM patients", "conditions": "for Cmax: iv", "protocol": "The total number of PK samples collected was approximately 110 mL of whole blood (7-8 tablespoons). If a patient experienced a potentially drug-related SAE, additional PK samples were collected. Blood was drawn from the contralateral arm to the infusion site using an indwelling catheter to avoid multiple needle sticks. […] The blood tube was inverted several times, and the tube placed in wet ice immediately pending separation of the plasma. If a catheter was used for blood collection, the fluid in the catheter was completely withdrawn prior to each sample collection and discarded. Plasma samples were kept on wet ice during collection and centrifugation. Plasma samples were split into two cryovials prior to freezing at −70° C.\nThe PK analysis was performed as follows. […] PK parameters were calculated on plasma concentration time data by non-compartmental analysis using Kinetica version 4.3 software (Innaphase, Champs sur Marne, France). AUC was calculated by the mixed log-linear rule: the linear rule was applied to the range where concentration was ascending and the log-linear rule was applied to the range where the concentration was descending. AUClast is the area from t=0 to tlast, the last sampling time. AUCextra is the extrapolated area from AUClast to infinity and AUCtotal=AUClast+AUCextra and is also named AUC0-∞ area under the concentration-time curve from time zero to infinity. The terminal rate constant λz was calculated on at least three points on the elimination curve with values greater than the lower limit of quantitation. […] Table 5 lists the areas, Cmax, and half-life for the metabolite 17-AG (mean±one standard deviation). […] There was no dose dependency for half-life, clearance or distributive volumes for these dose administrations."}, "[9]": {"conditions": "weekly 17-AAG, 3 weeks out of a 4 week cycle; cited from earlier work"}, "metastatic melanoma": {"tested_on": "metastatic melanoma", "conditions": "cited from earlier work"}, "leukemia cells": {"tested_on": "leukemia cells", "conditions": "exposure to 17-AAG; cited from earlier work"}, "Hsp70": {"tested_on": "Hsp70", "conditions": "320-450 mg/m^2/week; cited from earlier work"}, "[10]": {"tested_on": "MEXF 276 L melanoma cells", "conditions": "exposure to 17-AAG; cited from earlier work"}}, "note": "Values joined by “and” are separate entries in the source; they are usually repeats but may differ in a detail not shown here. Identical values can stand only once. “Also recorded” adds a separate entry of the source. Like-named read-outs stand apart in the source and are kept apart here."}
{"compound": "C=CCNC1=C2C[C@@H](C)C[C@H](OC)[C@H](O)[C@@H](C)/C=C(\\C)[C@H](OC(N)=O)[C@@H](OC)/C=C\\C=C(/C)C(=O)NC(=CC1=O)C2=O", "note": "[17-AAG, 17-Allylamino-17-demethoxygeldanamycin]", "values": [{"measurement": "DLT", "setting": "[1]; 150 mg/m^2, four patients", "result": "DLT was not observed in any of these four patients"}, {"measurement": "DLT", "setting": "[1]; 220 mg/m^2, seven evaluable patients", "result": "DLT was observed in one patient; the DLT was liver infiltration of plasma cells with a Grade 3 elevated ALT"}, {"measurement": "DLT", "setting": "[1]; 275 mg/m^2 twice weekly two of three weeks, three patients", "result": "DLT was not observed in any of these three patients; also recorded: without reaching dose limiting toxicity"}, {"measurement": "drug-related toxicities other than the single Grade 3 elevated ALT", "setting": "[1]; all dose levels", "result": "Grade 1-2 elevated transaminases, nausea, fatigue, diarrhea, anemia, myalgias and rash"}, {"measurement": "median overall survival", "setting": "[2]", "result": "significantly prolonged median overall survival"}, {"measurement": "Vss", "setting": "[3]", "result": "130 ± 50", "unit": "L"}, {"measurement": "t1/2", "setting": "[3]", "result": "2.98 ± 1.0", "unit": "h"}, {"measurement": "effect on client proteins", "setting": "[4]", "result": "degradation of cdk4, cdk6, and cyclin E"}, {"measurement": "Vz", "setting": "[5]", "result": 93, "unit": "L/m^2"}, {"measurement": "clearance", "setting": "[5]", "result": 19.9, "unit": "L/h/m^2"}, {"measurement": "patients with Raf-1 depletion in tumor biopsies", "setting": "Raf-1", "result": "4 out of 6"}, {"measurement": "patients with depletion of CDK4 in tumor biopsies", "setting": "CDK4", "result": "8 out of 9"}, {"measurement": "protein bound in plasma", "setting": "plasma protein", "result": "approximately 95%"}, {"measurement": "concentrations needed to achieve cell kill", "setting": "cell kill", "result": "10 to 500", "unit": "nM"}, {"measurement": "maximum tolerated dose (MTD) and recommended Phase 2 dose", "setting": "[6]", "result": 40, "unit": "mg/m^2"}, {"measurement": "relation of dose and area under the curve (AUC)", "setting": "[7]", "result": "linear correlation"}, {"measurement": "effect on client proteins", "setting": "NSCLC cells", "result": "depletion of erbB 1 (EGFR) and erbB2 (p185) levels"}, {"measurement": "objective tumor responses", "setting": "solid tumors", "result": "No objective tumor responses were observed"}, {"measurement": "clearance CL for 17-AAG, individual patients", "setting": "[8]; 220 mg/m^2, the two patients with metabolite in trough levels on Day 11", "result": "16.8 L/h/m^2 and 17.3 L/h/m^2"}, {"measurement": "clearance CL for 17-AAG, average for the cohort", "setting": "[8]; 220 mg/m^2 cohort", "result": "25.3±9.6", "unit": "L/h/m^2"}, {"measurement": "AUCtotal", "setting": "[8]; 17-AAG 150 mg/m^2, mean ± SD", "result": "5,592 ± 757 ng/mL * h"}, {"measurement": "Terminal T1/2", "setting": "[8]; 17-AAG 150 mg/m^2, mean ± SD", "result": "2.19 ± 0.58", "unit": "h"}, {"measurement": "Vss", "setting": "[8]; 17-AAG 150 mg/m^2, mean ± SD", "result": "170.9 ± 41.7", "unit": "L"}, {"measurement": "clearance", "setting": "[8]; 17-AAG 150 mg/m^2, mean ± SD", "result": "915.3 ± 113", "unit": "mL/min"}, {"measurement": "AUCtotal", "setting": "[8]; 17-AAG 220 mg/m^2, mean ± SD", "result": "9,460 ± 3,788 ng/mL * h"}, {"measurement": "Vss", "setting": "[8]; 17-AAG 220 mg/m^2, mean ± SD", "result": "139.1 ± 45.7", "unit": "L"}, {"measurement": "Vz", "setting": "[8]; 17-AAG 220 mg/m^2, mean ± SD", "result": "171.0 ± 67.1", "unit": "L"}, {"measurement": "AUCtotal", "setting": "[8]; 17-AAG 275 mg/m^2, mean ± SD", "result": "13,803 ± 1,540 ng/mL * h"}, {"measurement": "Vz", "setting": "[8]; 17-AAG 275 mg/m^2, mean ± SD", "result": "159.6 ± 54.4", "unit": "L"}, {"measurement": "AUCtotal", "setting": "[8]; 17-AAG 340 mg/m^2, mean ± SD", "result": "18,997 ± 4,195 ng/mL * h"}, {"measurement": "Vz", "setting": "[8]; 17-AAG 340 mg/m^2, mean ± SD", "result": "174.0 ± 71.2", "unit": "L"}, {"measurement": "change of AUCtotal between Day 1 and Day 11", "setting": "[8]; 17 patients, first vs fourth infusion", "result": "no increase in AUCtotal between Day 1 and Day 11"}, {"measurement": "dose proportionality of Cmax", "setting": "[8]; 150-340 mg/m^2 17-AAG", "result": "increased in an approximately dose proportional manner"}, {"measurement": "half-life", "setting": "[8]; human, in vivo", "result": "2.19 to 3.68", "unit": "h"}, {"measurement": "AUC(0-t)", "setting": "[8]; human, in vivo, 150 mg/m2", "result": 5300, "unit": "ng·h/mL"}, {"measurement": "Vd", "setting": "[8]; human, in vivo, 150 mg/m2, Vz, 17-AAG 150 mg/m^2, mean ± SD", "result": "170 ± 30.3", "unit": "L"}, {"measurement": "AUC(0-t)", "setting": "[8]; human, in vivo, 220 mg/m2", "result": 9160, "unit": "ng·h/mL"}, {"measurement": "half-life", "setting": "[8]; human, in vivo, 220 mg/m2", "result": "2.68 ± 0.99", "unit": "h"}, {"measurement": "clearance", "setting": "[8]; human, in vivo, 220 mg/m2, Clearance, 17-AAG 220 mg/m^2, mean ± SD", "result": 780, "unit": "mL/min"}, {"measurement": "AUC(0-t)", "setting": "[8]; human, in vivo, 275 mg/m2", "result": 13400, "unit": "ng·h/mL"}, {"measurement": "half-life", "setting": "[8]; human, in vivo, 275 mg/m2", "result": "2.96 ± 1.34", "unit": "h"}, {"measurement": "clearance", "setting": "[8]; human, in vivo, 275 mg/m2, Clearance, 17-AAG 275 mg/m^2, mean ± SD", "result": 661, "unit": "mL/min"}, {"measurement": "Vd", "setting": "[8]; human, in vivo, 275 mg/m2, Vss, 17-AAG 275 mg/m^2, mean ± SD", "result": "123 ± 23.4", "unit": "L"}, {"measurement": "AUC(0-t)", "setting": "[8]; human, in vivo, 340 mg/m2", "result": 18700, "unit": "ng·h/mL"}, {"measurement": "half-life", "setting": "[8]; human, in vivo, 340 mg/m2", "result": "3.3 ± 0.83", "unit": "h"}, {"measurement": "clearance", "setting": "[8]; human, in vivo, 340 mg/m2, Clearance, 17-AAG 340 mg/m^2, mean ± SD", "result": 595, "unit": "mL/min"}, {"measurement": "Vd", "setting": "[8]; human, in vivo, 340 mg/m2, Vss, 17-AAG 340 mg/m^2, mean ± SD", "result": "101 ± 27.7", "unit": "L"}, {"measurement": "clearance", "setting": "[8]; human, in vivo, CL, present study, overall", "result": 792, "unit": "mL/min"}, {"measurement": "clearance", "setting": "[8]; human, in vivo, Total systemic clearance, range of cohort means, across dose administrations", "result": "636 to 915", "unit": "mL/min"}, {"measurement": "Vd", "setting": "[8]; human, in vivo, distributive volume (Vss), range of cohort means, across dose administrations", "result": "123 to 171", "unit": "L"}, {"measurement": "Vd", "setting": "[8]; human, in vivo, distributive volume (Vz), range of cohort means, across dose administrations", "result": "160 to 204", "unit": "L"}, {"measurement": "Cmax", "setting": "[8]; human, in vivo, 150 mg/m2", "result": 2400, "unit": "ng/mL"}, {"measurement": "Cmax", "setting": "[8]; human, in vivo, 220 mg/m2", "result": 4670, "unit": "ng/mL"}, {"measurement": "Cmax", "setting": "[8]; human, in vivo, 275 mg/m2", "result": 6820, "unit": "ng/mL"}, {"measurement": "Cmax", "setting": "[8]; human, in vivo, 340 mg/m2", "result": 9360, "unit": "ng/mL"}, {"measurement": "Vss", "setting": "[8]; present study, overall", "result": "144.45 ± 43.51", "unit": "L"}, {"measurement": "MTD", "setting": "[9]", "result": 308, "unit": "mg/m^2"}, {"measurement": "complete or partial responses", "setting": "metastatic melanoma; once weekly schedule", "result": "No complete or partial responses were recorded"}, {"measurement": "stable disease", "setting": "metastatic melanoma; patients treated at 320-450 mg/m^2", "result": "two showed radiologically documented long term stable disease"}, {"measurement": "effect on client proteins", "setting": "leukemia cells", "result": "down-regulation of intracellular Bcr-Ab1 and c-Raf proteins and reduction of Akt kinase activity"}, {"measurement": "patients with induction of the co-chaperone protein Hsp70", "setting": "Hsp70", "result": "8 of 9"}, {"measurement": "effect on client proteins", "setting": "[10]", "result": "depletion of Hsp90 and down-regulation of Raf-1 and erbB2"}]}
